Measurements published in US8420693B2, “Dipyrrole compounds, compositions, and methods for treating cancer or viral diseases” (Gemin X Pharmaceuticals Canada Inc., priority 2004, dated 2013).
pIC50: −log10 of the molar value.

What was measured:
[1] = system: H1299 human non-small cell lung cancer-cells; assay: Cancer cell viability by cellular ATP levels (ViaLight), H1299; type: cell-based; conditions: NCI-H1299, 72 h, 3 days of incubation, ATP levels relative to untreated control
Description: (§1) Selected cell lines included C33A cervical carcinoma cells and H1299 human non-small cell lung cancer-cells (American Type Culture Collection, Manassas, Va. USA), which were cultured in the media recommended by the American Type Culture Collection. The cells lines were plated in 96-well microtiter plates (PerkinElmer Life Sciences Inc, Boston, Mass., USA) at a confluency that allowed them to reach confluence after 4 days of growth. One day after plating, the cells were treated with various concentrations of Compounds. Stock solutions of the Compounds were prepared in dimethyl sulfoxide (Sigma-Aldrich Inc., St. Louis, Mo., USA), diluted in the recommended media and then added to the cells. The total dimethyl sulfoxide on the cells was 0.1%. After 3 days of incubation the ATP levels in the cells were quantified using a luminescent ViaLight detection system (Bio-Whittaker, MD, USA). The results were plotted relative to untreated control cells, which were set at a value of 100. The IC50s were determined using a best-fit sigmoidal dose response curve with variable slope.

[2] = system: C33A cervical carcinoma cells; assay: Cancer cell viability by cellular ATP levels (ViaLight), C33A; type: cell-based; conditions: Homo sapiens, C-33-A, 72 h, 3 days of incubation, ATP levels relative to untreated control
Description: as §1

`COC1=CC(c2ccccc2)=NC1=Cc1[nH]c(C)cc1C` [Compound 1, 3-methoxy-2-((3,5-dimethyl-1H-pyrrol-2-yl)methylene)-5-phenyl-2H-pyrrole] was tested, and the pIC50 [1] was 5.00 and the pIC50 [2] was 5.00.

`COC1=CC(c2ccc(Cl)cc2)=NC1=Cc1[nH]c(C)cc1C` [Compound 2, 5-(4-chlorophenyl)-3-methoxy-2-((3,5-dimethyl-1H-pyrrol-2-yl)methylene)-2H-pyrrole] showed a pIC50 [1] of 5.00 and a pIC50 [2] of 5.60.

`COC1=CC(c2ccc(F)cc2F)=NC1=Cc1[nH]c(C)cc1C` [Compound 3, 2-((5-(2,4-difluorophenyl)-3-methoxy-2H-pyrrol-2-ylidene)methyl)-3,5-dimethyl-1H-pyrrole] was tested, and the pIC50 [1] was 5.00 and the pIC50 [2] was 5.52.

Molecule `COC1=CC(c2cccc3ncccc23)=NC1=Cc1[nH]c(C)cc1C` [Compound 4, 5-(4-methoxy-5-((3,5-dimethyl-1H-pyrrol-2-yl)methylene)-5H-pyrrol-2-yl)quinoline] has a pIC50 [1] of 4.78 and a pIC50 [2] of 4.78.

`COC1=CC(c2ccc(F)cc2)=NC1=Cc1[nH]c(C)cc1C` [Compound 5, 5-(4-fluorophenyl)-3-methoxy-2-((3,5-dimethyl-1H-pyrrol-2-yl)methylene)-2H-pyrrole] was tested, and the pIC50 [1] was 5.00 and the pIC50 [2] was 5.66.

In the case of `COC1=CC(c2cccs2)=NC1=Cc1[nH]c(C)cc1C` [Compound 6, 2-((3-methoxy-5-(thiophen-2-yl)-2H-pyrrol-2-ylidene)methyl)-3,5-dimethyl-1H-pyrrole], the pIC50 [1] was 5.07 and the pIC50 [2] was 5.19.

`COC1=CC(c2ccc(Br)s2)=NC1=Cc1[nH]c(C)cc1C` [Compound 7, 2-((5-(5-bromothiophen-2-yl)-3-methoxy-2H-pyrrol-2-ylidene)methyl)-3,5-dimethyl-1H-pyrrole] gave a pIC50 [1] of 4.82 and a pIC50 [2] of 5.02.

`COC1=CC(c2ccc(NS(C)(=O)=O)cc2)=N/C1=C\c1[nH]c(C)cc1C` [Compound 8, N-4-(4-methoxy-5-((3,5-dimethyl-1H-pyrrol-2-yl)methylene)-5H-pyrrol-2-yl)-phenyl-methylsulfonamide] gave a pIC50 [1] of 5.00 and a pIC50 [2] of 5.10.

Work on `COC1=CC(c2ccc(C=O)cc2)=NC1=Cc1[nH]c(C)cc1C` [Compound 9, 4-(4-methoxy-5-((3,5-dimethyl-1H-pyrrol-2-yl)methylene)-5H-pyrrol-2-yl)benzaldehyde] yielded a pIC50 [1] of 4.67 and a pIC50 [2] of 4.97.

For `COC1=CC(c2cc3ccccc3s2)=NC1=Cc1[nH]c(C)cc1C` [Compound 10, 2-((5-(benzo[b]thiophen-2-yl)-3-methoxy-2H-pyrrol-2-ylidene)methyl)-3,5-dimethyl-1H-pyrrole], the pIC50 [1] was 5.34 and the pIC50 [2] was 5.52.

Molecule `COC1=CC(c2ccc(OC)cc2C=O)=NC1=Cc1[nH]c(C)cc1C` [Compound 11, 5-methoxy-2-(4-methoxy-5-((3,5-dimethyl-1H-pyrrol-2-yl)methylene)-5H-pyrrol-2-yl)benzaldehyde] has a pIC50 [1] of 4.90 and a pIC50 [2] of 5.15.

`COC1=CC(c2cccc([N+](=O)[O-])c2)=NC1=Cc1[nH]c(C)cc1C` [Compound 12, 2-((3-methoxy-5-(3-nitrophenyl)-2H-pyrrol-2-ylidene)methyl)-3,5-dimethyl-1H-pyrrole] showed a pIC50 [1] of 4.85 and a pIC50 [2] of 4.82.

With `COC1=CC(c2ccco2)=NC1=Cc1[nH]c(C)cc1C` [Compound 13, 2-((5-(furan-2-yl)-3-methoxy-2H-pyrrol-2-ylidene)methyl)-3,5-dimethyl-1H-pyrrole] the pIC50 [1] was 4.40 and the pIC50 [2] was 5.70.

Molecule `COC1=CC(c2ccoc2)=NC1=Cc1[nH]c(C)cc1C` [Compound 14, 2-((5-(furan-3-yl)-3-methoxy-2H-pyrrol-2-ylidene)methyl)-3,5-dimethyl-1H-pyrrole] has a pIC50 [1] of 5.19 and a pIC50 [2] of 6.15.

Work on `COC1=CC(c2ccsc2)=NC1=Cc1[nH]c(C)cc1C` [Compound 15, 2-((3-methoxy-5-(thiophen-3-yl)-2H-pyrrol-2-ylidene)methyl)-3,5-dimethyl-1H-pyrrole] yielded a pIC50 [1] of 5.18 and a pIC50 [2] of 6.12.

In the case of `COC1=CC(c2ccc(OC)cc2OC)=NC1=Cc1[nH]c(C)cc1C` [Compound 16, 2-((3-methoxy-5-(2,4-dimethoxyphenyl)-2H-pyrrol-2-ylidene)methyl)-3,5-dimethyl-1H-pyrrole], the pIC50 [1] was 5.35 and the pIC50 [2] was 5.52.

In the case of `COC1=CC(c2ccc(OC)c(OC)c2)=NC1=Cc1[nH]c(C)cc1C` [Compound 17, 2-((3-methoxy-5-(3,4-dimethoxyphenyl)-2H-pyrrol-2-ylidene)methyl)-3,5-dimethyl-1H-pyrrole], the pIC50 [1] was 6.24 and the pIC50 [2] was 6.68.

For `COC1=CC(c2ccc(OC)c(OC)c2OC)=NC1=Cc1[nH]c(C)cc1C` [Compound 18, 2-((3-methoxy-5-(2,3,4-trimethoxyphenyl)-2H-pyrrol-2-ylidene)methyl)-3,5-dimethyl-1H-pyrrole], the pIC50 [1] was 5.40 and the pIC50 [2] was 5.70.

Molecule `COC1=CC(c2cc(OC)ccc2OC)=NC1=Cc1[nH]c(C)cc1C` [Compound 19, 2-((3-methoxy-5-(2,5-dimethoxyphenyl)-2H-pyrrol-2-ylidene)methyl)-3,5-dimethyl-1H-pyrrole] has a pIC50 [1] of 4.70 and a pIC50 [2] of 4.70.

In the case of `COC1=CC(c2ccc3c(c2)OCO3)=NC1=Cc1[nH]c(C)cc1C` [Compound 20, 2-((5-(benzo[d][1,3]dioxol-5-yl)-3-methoxy-2H-pyrrol-2-ylidene)methyl)-3,5-dimethyl-1H-pyrrole], the pIC50 [1] was 6.26 and the pIC50 [2] was 6.68.

`COC1=CC(c2ccc(OCCN3CCCC3)cc2)=NC1=Cc1[nH]c(C)cc1C` [Compound 21, 2-((5-(4-(2-(pyrrolidin-1-yl)ethoxy)phenyl)-3-methoxy-2H-pyrrol-2-ylidene)methyl)-3,5-dimethyl-1H-pyrrole] gave a pIC50 [1] of 5.87 and a pIC50 [2] of 6.16.

Work on `COC1=CC(c2ccc(N(C)C)cc2)=NC1=Cc1[nH]c(C)cc1C` [Compound 22, 4-(4-methoxy-5-((3,5-dimethyl-1H-pyrrol-2-yl)methylene)-5H-pyrrol-2-yl)-N,N-dimethylbenzenamine] yielded a pIC50 [1] of 6.38 and a pIC50 [2] of 6.54.

`COC1=CC(c2ccc3c(c2)OCCO3)=NC1=Cc1[nH]c(C)cc1C` [Compound 23, 2-((5-(2,3-dihydrobenzo[b][1,4]dioxin-7-yl)-3-methoxy-2H-pyrrol-2-ylidene)methyl)-3,5-dimethyl-1H-pyrrole] was tested, and the pIC50 [1] was 5.12 and the pIC50 [2] was 5.80.

In the case of `COC1=CC(c2ccc(OC)c(C)c2)=NC1=Cc1[nH]c(C)cc1C` [Compound 24, 2-((3-methoxy-5-(4-methoxy-3-methylphenyl)-2H-pyrrol-2-ylidene)methyl)-3,5-dimethyl-1H-pyrrole], the pIC50 [1] was 5.98 and the pIC50 [2] was 6.30.

Molecule `COC1=CC(c2ccc(C(=O)N3CCCC3)cc2)=NC1=Cc1[nH]c(C)cc1C` [Compound 25, (4-(4-methoxy-5-((3,5-dimethyl-1H-pyrrol-2-yl)methylene)-5H-pyrrol-2-yl)phenyl)(pyrrolidin-1-yl)methanone] has a pIC50 [1] of 4.78 and a pIC50 [2] of 5.11.

`COC1=CC(c2ccc(OC)c(F)c2)=NC1=Cc1[nH]c(C)cc1C` [Compound 26, 2-((5-(3-fluoro-4-methoxyphenyl)-3-methoxy-2H-pyrrol-2-ylidene)methyl)-3,5-dimethyl-1H-pyrrole] gave a pIC50 [1] of 5.44 and a pIC50 [2] of 6.07.

`COC1=CC(c2ccc3cc(OC)ccc3c2)=NC1=Cc1[nH]c(C)cc1C` [Compound 27, 2-((3-methoxy-5-(2-methoxynaphthalen-6-yl)-2H-pyrrol-2-ylidene)methyl)-3,5-dimethyl-1H-pyrrole] was tested, and the pIC50 [1] was 5.20 and the pIC50 [2] was 5.16.

Molecule `COC1=CC(c2cc(OC)c(OC)c(OC)c2)=NC1=Cc1[nH]c(C)cc1C` [Compound 28, 2-((3-methoxy-5-(3,4,5-trimethoxyphenyl)-2H-pyrrol-2-ylidene)methyl)-3,5-dimethyl-1H-pyrrole] has a pIC50 [1] of 5.62 and a pIC50 [2] of 6.20.

With `COC1=CC(c2ccc(Br)cc2)=NC1=Cc1[nH]c(C)cc1C` [Compound 29, 2-((5-(4-bromophenyl)-3-methoxy-2H-pyrrol-2-ylidene)methyl)-3,5-dimethyl-1H-pyrrole] the pIC50 [1] was 5.18 and the pIC50 [2] was 5.94.

`COC1=CC(c2cccnc2OC)=NC1=Cc1[nH]c(C)cc1C` [Compound 30, 2-methoxy-3-(4-methoxy-5-((3,5-dimethyl-1H-pyrrol-2-yl)methylene)-5H-pyrrol-2-yl)pyridine] showed a pIC50 [1] of 5.25 and a pIC50 [2] of 5.92.

`COC1=CC(c2ccc3c(c2)OCC3)=NC1=Cc1[nH]c(C)cc1C` [Compound 31, 2-((5-(2,3-dihydrobenzofuran-6-yl)-3-methoxy-2H-pyrrol-2-ylidene)methyl)-3,5-dimethyl-1H-pyrrole] gave a pIC50 [1] of 6.18 and a pIC50 [2] of 6.67.

In the case of `COC1=CC(c2cnc(OC)nc2OC)=NC1=Cc1[nH]c(C)cc1C` [Compound 32, 2,4-dimethoxy-5-(4-methoxy-5-((3,5-dimethyl-1H-pyrrol-2-yl)methylene)-5H-pyrrol-2-yl)pyrimidine], the pIC50 [1] was 5.16 and the pIC50 [2] was 5.20.

For `COC1=CC(c2cccnc2Cl)=NC1=Cc1[nH]c(C)cc1C` [Compound 33, 2-chloro-3-(4-methoxy-5-((3,5-dimethyl-1H-pyrrol-2-yl)methylene)-5H-pyrrol-2-yl)pyridine], the pIC50 [1] was 4.80 and the pIC50 [2] was 5.06.

Work on `COC1=CC(c2ccc3c(c2)OCCN3C)=NC1=Cc1[nH]c(C)cc1C` [Compound 34, 3,4-dihydro-7-(4-methoxy-5-((3,5-dimethyl-1H-pyrrol-2-yl)methylene)-5H-pyrrol-2-yl)-4-methyl-2H-benzo[b][1,4]oxazine] yielded a pIC50 [1] of 5.91 and a pIC50 [2] of 5.91.
